What all share (type): cell-based
One experiment concerns MCF-7 cells. Description: MTT cytotoxicity test, MCF-7. The following applies: Homo sapiens; for inhibition at 50 µM: MCF7; for pIC50 / IC50: MCF7, 72 h; for pIC50: read-out: IC50 MCF-7; for IC50: MTT, 3 days, read-out: IC50 (µM) MCF-7. The procedure:
(§1) All compounds were evaluated in triplicate using six points, 1/3 dilutions, with the highest concentration of 50 µM. The triplicate measurements were placed in three different 96-plates, and 1% DMSO was used as a negative control.
(§2) The first sets of […] (GH38, GH18, GH27, FH38, FH18, […] and FH37) were evaluated in different cancer cell lines: HepG2, MCF-7, SH-SY5Y, MIA PaCa-2, and […]. Furthermore, the second series of eight compounds were evaluated using seven cell lines: SH-SY5Y which is a neuroblastoma cell line; HepG2, a hepatocellular carcinoma cell line; MIA PaCa-2, a human pancreatic carcinoma cell line; MCF-7, a breast cancer cell line; HCC1954, a basal-Her2+ breast carcinoma cell line; RCC4-VA, a renal carcinoma cell line with a VHL mutation; and RCC4-VHL, a renal carcinoma cell without the VHL mutation (wild type). The cells used were seeded in 96-well plates and left for 24 h (5% CO2 and 90% humidity, 50000 cells/well) and incubated for 3 days to study the cytotoxicity.
On the technique in general: Tetrazolium dyes change colour on reduction, which living cells bring about.

A further experiment deals with HepG2 cells. As to the kind of experiment: MTT cytotoxicity test, HepG2. The following applies: Homo sapiens; for inhibition at 50 µM: HepG2; for pIC50 / IC50: HepG2, 72 h; for pIC50: read-out: IC50 HepG2; for IC50: MTT, 3 days, read-out: IC50 (µM) HepG2. The procedure:
as §1, §2

A further experiment has as its system MIA PaCa-2 cells. As to the kind of experiment: MTT cytotoxicity test, MIA PaCa-2. The following applies: Homo sapiens; for inhibition at 50 µM: MIA PaCa-2; for pIC50 / IC50: MIA PaCa-2, 72 h; for pIC50: read-out: IC50 MIA PaCa-2; for IC50: MTT, 3 days, read-out: IC50 (µM) MIA PaCa-2. The protocol: as §1, §2
Another experiment concerns RCC4-VA cells. As to the kind of experiment: MTT cytotoxicity test, RCC4-VA. As to conditions: 72 h, 3 days. The protocol: as §1, §2
The test system of a further experiment is SH-SY5Y cells. Description: MTT cytotoxicity test, SH-SY5Y. As to conditions: Homo sapiens, 72 h, 3 days. The procedure: as §1, §2
In a further experiment the test system is HCC1954 cells. Description: MTT cytotoxicity test, HCC1954. The following applies: Homo sapiens, HCC1954, 72 h, 3 days. The protocol:
as §1, §2

Another experiment has as its system RCC4-VHL cells. As to the kind of experiment: MTT cytotoxicity test, RCC4-VHL. The following applies: Homo sapiens, 72 h, 3 days. The protocol:
as §1, §2

Inhibition and IC50 data for 13 compounds are collected here from publication PMC7320180, “Hydroxamic acid derivatives as HDAC1, HDAC6 and HDAC8 inhibitors with antiproliferative activity in cancer cell lines” (Scientific Reports, 2020).

Molecules are shown by their SMILES. pIC50: −log10 of the molar value. Like-named read-outs stand apart in the source and are kept apart here. Some results are limits rather than exact numbers.

On to `Cc1ccc(C(=O)N[C@@H](Cc2ccccc2)C(=O)NO)cc1` [FH18, (S)-N-(1-(hydroxyamino)-1-oxo-3-phenylpropan-2-yl)-4-methylbenzamide], for which the results for the inhibition at 50 µM with MCF-7 cells, in the experiment with HepG2 cells and in the experiment with MIA PaCa-2 cells were 41.2%, 5.52% and 0.05%, respectively. In addition, the pIC50 in the experiment with MCF-7 cells, with HepG2 cells and in the experiment with MIA PaCa-2 cells was less than 4.30 throughout.
`CCCCc1ccc(C(=O)N[C@@H](Cc2ccccc2)C(=O)NO)cc1` [FH27, (S)-4-butyl-N-(1-(hydroxyamino)-1-oxo-3-phenylpropan-2-yl)benzamide]: the inhibition (as a rule, the share of the control response that was lost under treatment) at 50 µM with MCF-7 cells was found to be 37.6%; with HepG2 cells it was 35.4%; in the experiment on MIA PaCa-2 cells it was 2.82%. In addition, the pIC50 in the experiment with MCF-7 cells, in the experiment on HepG2 cells and in the experiment with MIA PaCa-2 cells was less than 4.30 in each case.
In the case of `CCCC(CCC)C(=O)N[C@@H](Cc1ccccc1)C(=O)NO` [FH37, (S)-N-(1-(hydroxyamino)-1-oxo-3-phenylpropan-2-yl)-2-propylpentanamide], the inhibition at 50 µM in the experiment with MCF-7 cells is 49.1%; in the experiment on HepG2 cells, 48.6%; in the experiment on MIA PaCa-2 cells it was 7.47%. Also, the pIC50 in the experiment on MCF-7 cells, in the experiment with HepG2 cells and in the experiment with MIA PaCa-2 cells was less than 4.30 in each case.
Turning to `O=C(N[C@@H](Cc1ccccc1)C(=O)NO)c1ccccc1` [FH38, (S)-N-(1-(hydroxyamino)-1-oxo-3-phenylpropan-2-yl)benzamide], the inhibition at 50 µM in the experiment with MCF-7 cells was 21%; in the experiment on HepG2 cells, 14.1%; in the experiment with MIA PaCa-2 cells, 0.43%. The negative-log IC50 (pIC50) in the experiment with MCF-7 cells, with HepG2 cells and in the experiment with MIA PaCa-2 cells was less than 4.30 throughout.
For `Cc1ccc(C(=O)NCC(=O)NO)cc1` [GH18, N-(2-(hydroxyamino)-2-oxoethyl)-4-methyl benzamide], the inhibition at 50 µM with MCF-7 cells turned out to be 17.2%; in the experiment with HepG2 cells, 3.08%; in the experiment with MIA PaCa-2 cells, 4.44%. In addition, the pIC50 in the experiment on MCF-7 cells, in the experiment with HepG2 cells and in the experiment with MIA PaCa-2 cells was less than 4.30 throughout.
Regarding `CCCCc1ccc(C(=O)NCC(=O)NO)cc1` [GH27, 4-butyl-N-(2-(hydroxyamino)-2-oxoethyl)benzamide], the figures for the inhibition at 50 µM in the experiment with MCF-7 cells, with HepG2 cells and in the experiment with MIA PaCa-2 cells were 40.4%, 1.38% and 10.7%, respectively. For the same compound, the pIC50 in the experiment on MCF-7 cells, in the experiment with HepG2 cells and in the experiment with MIA PaCa-2 cells was less than 4.30 throughout.
As to `O=C(CNC(=O)c1ccccc1)NO` [GH38, N-(2-(hydroxyamino)-2-oxoethyl)benzamide], the inhibition at 50 µM in the experiment on MCF-7 cells was determined as 16.1%; with HepG2 cells it was 1.01%; with MIA PaCa-2 cells, 0.18%. Further, the negative-log IC50 (pIC50) with MCF-7 cells, in the experiment with HepG2 cells and with MIA PaCa-2 cells was less than 4.30 throughout.
Turning to `CCCCc1ccc(C(=O)N[C@@H](Cc2ccc(O)cc2)C(=O)NO)cc1` [YSL-99, (S)-4-butyl-N-(1-(hydroxyamino)-3-(4-hydroxyphenyl)-1-oxopropan-2-yl)benzamide], the IC50 (commonly the concentration needed to halve the response being measured) with MCF-7 cells was 8.96 µM; with RCC4-VA cells, greater than 50 µM; with SH-SY5Y cells, 36.2 µM; with HepG2 cells it was 30.9 µM; with MIA PaCa-2 cells, greater than 50 µM; with HCC1954 cells, 42.9 µM. Further, in the experiment with RCC4-VHL cells, the IC50 was greater than 50 µM.
With `CCCCc1ccc(C(=O)N[C@H](Cc2ccccc2)C(=O)NO)cc1` [YSL-106, (R)-4-butyl-N-(1-(hydroxyamino)-1-oxo-3-phenylpropan-2-yl)benzamide], the IC50 came to 4.94 µM in the experiment on MCF-7 cells; 12.9 µM in the experiment on RCC4-VA cells; 18.9 µM in the experiment with SH-SY5Y cells; 11.6 µM in the experiment on HepG2 cells; 21.6 µM in the experiment on MIA PaCa-2 cells; 26.1 µM with HCC1954 cells. In the experiment with RCC4-VHL cells, this compound showed an IC50 of 21.1 µM.
Regarding `CCCCc1ccc(C(=O)N[C@@H](Cc2ccc3ccccc3c2)C(=O)NO)cc1` [YSL-112, (S)-4-butyl-N-(1-(hydroxyamino)-3-(naphthalen-2-yl)-1-oxopropan-2-yl)benzamide], the IC50 was 7.27 µM in the experiment with MCF-7 cells; 31.9 µM in the experiment with RCC4-VA cells; 21.4 µM in the experiment on SH-SY5Y cells; 10.8 µM with HepG2 cells; greater than 50 µM in the experiment on MIA PaCa-2 cells; 7.62 µM with HCC1954 cells. This compound also returned an IC50 in the experiment with RCC4-VHL cells of 46.5 µM.
Take `CCCCc1ccc(C(=O)N[C@@H](Cc2ccc(F)cc2)C(=O)NO)cc1` [YSL-116, (S)-4-butyl-N-(3-(4-fluorophenyl)-1-(hydroxyamino)-1-oxopropan-2-yl)benzamide]: the IC50 with MCF-7 cells was 27.9 µM; with RCC4-VA cells it was 38.9 µM; in the experiment with SH-SY5Y cells, 19.6 µM; with HepG2 cells it was 18 µM; with MIA PaCa-2 cells, greater than 50 µM; with HCC1954 cells it was 18 µM. Also, the IC50 with RCC4-VHL cells worked out at 44.2 µM.
Consider `CCCCc1ccc(C(=O)N[C@@H](Cc2ccc(I)cc2)C(=O)NO)cc1` [YSL-121, (S)-4-butyl-N-(1-(hydroxyamino)-3-(4-iodophenyl)-1-oxopropan-2-yl)benzamide], for which the 50% inhibitory concentration (IC50) with MCF-7 cells was greater than 50 µM; in the experiment with RCC4-VA cells, greater than 50 µM; in the experiment with SH-SY5Y cells, 1.41 µM; with HepG2 cells, 41.1 µM; with MIA PaCa-2 cells, greater than 50 µM; in the experiment with HCC1954 cells, 8.49 µM. Further, the IC50 with RCC4-VHL cells was greater than 50 µM.
With `CCCCc1ccc(C(=O)N[C@@H](Cc2ccc([N+](=O)[O-])cc2)C(=O)NO)cc1` [YSL-125, (S)-4-butyl-N-(1-(hydroxyamino)-3-(4-nitrophenyl)-1-oxopropan-2-yl)benzamide], the IC50 in the experiment on MCF-7 cells was 16.6 µM; in the experiment with RCC4-VA cells it was 10.5 µM; in the experiment with SH-SY5Y cells, 6.5 µM; with HepG2 cells, 15.7 µM; in the experiment on MIA PaCa-2 cells, 42.5 µM; in the experiment on HCC1954 cells, 14.8 µM. Also, 8.02 µM corresponded to half-maximal inhibition with RCC4-VHL cells (IC50).
